Measurements taken from patent US11447825B2, “In-vitro methods for the detection of autoimmune diseases or conditions” (Universitätsmedizin der Johannes Gutenberg-Universität Mainz, priority 2015, dated 2022).

Assays:
Assay type in all cases: cell-based, human
T-cells = test: Toxicity of PPARα modifiers in cell culture; details: incubation with PPARα antagonist (Supplemental FIG. 4)
Experimental: Human cells were cultured in X-VIVO-15 (Lonza, Belgium). Flow cytometric analysis was performed using the following antibodies: anti-human CD3 (SK7), anti-human CD3 (UCHT1), anti-human CD4 (RPA-T4), anti-human CD8 (SK1), anti-human CD14 (M5E2), anti-human CD19 (HIB19), anti-human CD25 (M-A251), all from BD Pharmingen, anti-human CD8 (BW 135/80, Miltenyi Biotec), Fluorokine® biotinylated human Interleukin-6 (R&D systems). Cell viability during flow cytometric analysis was determined using 7-AAD and eFluor506 (eBioscience). For blockade experiments, cultures were supplemented with neutralizing antibody against anti-IL-6R (Tocilizumab), PKB/c-Akt VIII inhibitor (Calbiochem), PPARA antagonists (GW6471, Tocris, 0.05 μM) or PPARA agonists (GW7646, Tocris, 0.01 μM) together with IL-6 (100 ng/ml or 1000 IU/ml; CellGenix).

[1] = test system: T-cells cocultured with Treg; test: Suppressor assay: T-cell proliferation with or without Treg (3H-Tdr incorporation); details: for Treg-mediated suppression in cocultures in presence of exogenous IL-6: HC T-cells with Treg plus IL-6 plus test substance, anti-IL-6R mAb 30 ng/ml, Akt VIII inhibitor 0.1 μM, PPARA agonist 0.01 μM
Experimental: Treg-depleted PBMC (10^5 cells) were stimulated with 0.5 μg/ml anti-CD3 mAb (OKT-3) and cultured in presence or absence of different Treg ratios (Treg:T-cells 1:1 to 1:64) (Jonuleit et al., 2001; Kubach et al., 2007). T-cell proliferation was determined on day three of cultures by addition of 37 kBq/well ^3H-Tdr for additional 16 h. Some experiments were performed by supplementing cultures with neutralizing mAb against anti-IL-6R (30 ng/ml; Tocilizumab; Roacterma; Roche) or supplemented with IL-6 (100 ng/ml or 1000 IU/ml; CellGenix). PKB/c-Akt VIII inhibitor (0.1 μM; Calbiochem, Isozyme-selective, Akt1/2) was added into individual assays. Some experiments were performed by supplementing cultures with PPARA antagonists (GW6471, Tocris, 0.05 μM) or PPARA agonists (GW7646, Tocris, 0.01 μM) together with IL-6 (100 ng/ml or 1000 IU/ml; CellGenix). For flow cytometric analysis of proliferating T-cells Treg-depleted PBMC were washed in warm PBS and stained with 1 μM CFSE and afterwards cocultured with or without Treg (ratio 1:1) and stimulated with 0.5 μg/ml anti-CD3 mAb. Proliferation was assessed on day 3 after excluding dead cells. Analysis was performed on LSRII (BD Bioscience) and evaluated using DIVA software (BD Bioscience).

PKB/c-Akt = PKB/c-Akt phosphorylation in CD3+ T-cells by flow cytometry; details: HC T-cells; for phosphorylation of PKB/c-Akt in presence of IL-6: 24 h with IL-6 plus IL-6R mAb or VIII inhibitor (0.01, 0.1 and 1 μM)
Experimental: For surface staining of PBMC or T-cells indicated antibodies were incubated for 30 min at 4° C. and washed twice with PBS. Stained cells were measured on LSRII with FACS Diva Software (BD Bioscience). To detect phosphorylated PKB/c-Akt (anti-Akt, pS473, BD Phosflow), cells were fixed at 37° C. (BD Cytofix™ Buffer); permeabilized (BD™ Phosflow Perm Buffer) washed twice with BD Pharmingen™ stain buffer and stained for the indicated antibody according to manufacturer's instructions.
A) Upper panel: CD3^+ T-cells and Treg were coculture in presence (grey) or absence (black) of IL-6 and stimulated with anti-CD3 mAb. […] One of four independent experiments is shown. Lower panel: PBMC from HC were cultured for 24 h with (grey) or without (black) IL-6, washed extensively and CD4^+ or CD8^+ T-cells were isolated. Cells were left unstimulated or were activated with plate-bound anti-CD3 and anti-CD28 mAb for four hours. Shown are expression levels of (PPARGC1A) PGC-1α mRNA in activated CD4^+ and CD8^+ T-cells (TC) normalized to resting T-cells. β-Actin used as housekeeping gene. Bars represent mean of four experiments, p-values relative to TC without IL-6. B) PKB/c-Akt phosphorylation was analyzed by flow cytometry within CD3^+ T-cells after 24 h of culture with (black) or without IL-6 (grey). C) Flow cytometric determination of PKB/c-Akt phosphorylation. […] Shown is the mean fluorescence intensity (MFI) of pPKB/c-Akt in T-cells, one representative result of five independent experiments. […] PKB/c-Akt phosphorylation was analyzed by flow cytometry within CD3^+ T-cells. […]
A) PBMC from HC were cultured for 24 h with media (black), PPARα antagonist (blue) or PPARα agonist (green), washed extensively and expression level of PGC-1α mRNA in activated T-cells was detected by qRT-PCR. β-Actin used as housekeeping gene. […] B) PKB/c-Akt phosphorylation was analysed by flow cytometry within CD3^+ T-cells after 24 h of culture with media (black), PPARα agonist (green) or PPARα antagonist (blue). […]

PGC-1α = PGC-1α (PPARGC1A) mRNA expression in activated T-cells by qRT-PCR; details: HC PBMC 24 h with IL-6, then anti-CD3/anti-CD28 for four hours; normalized to resting T-cells
Experimental: RNA was extracted from 2×10^6 cells using Rneasy Kit (Qiagen) according to manufacturer's instructions. cDNA was generated by reverse transcription with Sensiscript RT Kit (Qiagen) and amplified by quantitative RT-PCR (qRT-PCR, 7300 Real Time PCR System (Applied Biosystem) and the QuantiFAST PCR Kit (Qiagen). Relative IL-6 mRNA (QuantiTect Primer, Qiagen) expression levels were normalized to EF1-α or β-Actin. Relative PPARGC1α, IRF8, FGF19, HNF4A, Hdac, RORA mRNA was analyzed with QuantiTect Primer Assay (Qiagen) according to manufacturer's instructions and expression levels were normalized to β-ACT.
A) Upper panel: CD3^+ T-cells and Treg were coculture in presence (grey) or absence (black) of IL-6 and stimulated with anti-CD3 mAb. […] One of four independent experiments is shown. […] B) PKB/c-Akt phosphorylation was analyzed by flow cytometry within CD3^+ T-cells after 24 h of culture with (black) or without IL-6 (grey). […] Shown is the mean fluorescence intensity (MFI) of pPKB/c-Akt in T-cells, one representative result of five independent experiments. […] PKB/c-Akt phosphorylation was analyzed by flow cytometry within CD3^+ T-cells. […]
A) PBMC from HC were cultured for 24 h with media (black), PPARα antagonist (blue) or PPARα agonist (green), washed extensively and expression level of PGC-1α mRNA in activated T-cells was detected by qRT-PCR. β-Actin used as housekeeping gene. […]

CCC(=O)NC[C@H](Cc1ccc(OCCc2nc(-c3ccccc3)oc2C)cc1)N/C(C)=C\C(=O)c1ccc(C(F)(F)F)cc1 [PPARα antagonist]
toxicity (T-cells): without inducing toxicity | Treg resistance in cocultures without IL-6 ([1]; T-cells and Treg, anti-CD3 mAb, PPARA antagonist 0.05 μM alone): Treg resistance could be induced | T-cell proliferation in absence of Treg ([1]; no Treg, agonist 0.01 μM, antagonist 0.05 μM): did not influence the T-cell proliferation significantly

O=c1[nH]c2ccccc2n1C1CCN(Cc2ccc(-c3nc4cc5[nH]cnc5cc4nc3-c3ccccc3)cc2)CC1 [c-Akt inhibitor VIII]
phosphorylation of PKB/c-Akt in presence of IL-6 (PKB/c-Akt): inhibited phosphorylation of PKB/c-Akt | Treg-mediated suppression in cocultures in presence of exogenous IL-6 [1]: restored IL-6-induced Treg resistance

IL-6: exogenous cytokine IL-6 (100 ng/ml or 1000 IU/ml; CellGenix)
PGC-1α expression in activated CD4+ T-cells (PGC-1α): down regulated PGC-1α expression | PGC-1α expression in activated CD8+ T-cells (PGC-1α): prevented the upregulation of PGC-1α | phosphorylation of PKB/c-Akt in T-cells (PKB/c-Akt; 24 h culture with IL-6): enhanced phosphorylation of PKB/c-Akt | control of T-cells by Treg in suppressor cocultures ([1]; Treg-sensitive T-cells from HC with Treg, anti-CD3 mAb, IL-6 supplemented (100 ng/ml or 1000 IU/ml), day three): prevented efficient control of T-cells by Treg

anti-IL-6R mAb: neutralizing mAb against anti-IL-6R (Tocilizumab; Roacterma; Roche)
phosphorylation of PKB/c-Akt in presence of IL-6 (PKB/c-Akt): inhibited phosphorylation of PKB/c-Akt | Treg-mediated suppression in cocultures in presence of exogenous IL-6 [1]: restored IL-6-induced Treg resistance
